{
  "source": "patent US7445892B2",
  "about": "“Method of testing anticancer agent-sensitivity of tumor cells” (Eisai Co., Ltd., priority 2000, dated 2008)",
  "key": {"HCT116-C9": {"test_system": "HCT116-C9", "assay": "Gene expression analysis by quantitative PCR", "assay_type": "cell-based, human", "conditions": "susceptible strain HCT116-C9, 8 μM, 0-12 hours, FIG. 2", "experimental": "(§1) E7070, or ER-35748 or ER-68487 represented by the structural formula shown below was added to the media of an E7070-susceptible strain HCT116-C9 and an E7070-resistant strain HCT116-C9-C1 at a concentration of 8 μM and the cells were cultured. Then, cells were recovered after 0, 3, 6 and 12 hours. Further, the cells were also cultured for 12 hours without adding the drug and recovered. In order to confirm that variations in gene expression obtained in Example 2 reflected the susceptibility of a tumor cell to E7070, changes of gene expression in E7070-susceptible cells and E7070-resistant cells were examined by quantitative PCR using RNA shown in Example 1, SYBR Green and ABI Prism 7700 Sequence Detection System (Perkin-Elmer Applied Biosystems). The operation was performed in two steps of a reverse transcription reaction and PCR reaction. […] The mRNA level in each specimen was quantified by measuring fluorescence intensity. In comparison of two or more specimens, quantitative values were corrected based on the mRNA level of GAPDH in each specimen. The relationships between the drug treatment time and each mRNA level are shown in FIGS. 2 to 5, where the quantified value at 0 hour after the drug treatment was used as a control (100%)."}, "HCT116-C9-C1": {"test_system": "HCT116-C9-C1", "assay": "Gene expression analysis by quantitative PCR", "assay_type": "cell-based, human", "conditions": "resistant strain HCT116-C9-C1, 8 μM, 0-12 hours, FIG. 4", "experimental": "as §1"}},
  "data": [
    {"smiles": "NS(=O)(=O)c1ccc(S(=O)(=O)Nc2cccc3c(Cl)c[nH]c23)cc1", "note": "[E7070, N-(3-chloro-7-indolyl)-1,4-benzenedisulfonamide]", "values": [
      {"measurement": "mRNA level variation of S80343, U07919, U11791, M95809, U18291, U63743, M61764 (corrected by GAPDH)", "setting": "HCT116-C9", "result": "largest expression variation"},
      {"measurement": "mRNA level variation of S80343, U07919, U11791, M95809, U18291, U63743, M61764 (corrected by GAPDH)", "setting": "HCT116-C9-C1", "result": "no expression variation was observed"}
    ]}
  ]
}
